Here are results for 11 compounds from patent US7141603B2, “Antitumor agents” (The Regents of The University California, priority 1999, dated 2006).

As usually defined, the IC50 is the concentration needed to halve the response being measured.

Bounds are passed on as bounds.

In series [1] the test system is 8392 (B-cell leukemia/lymphoma) cells. The experiment in a line: Test A in vitro cytotoxicity, 2 hour exposure, [3H]-thymidine incorporation. To be noted: read-out: 2 hour IC50 8392, mean ± 1 standard deviation. The class given is cell-based. The procedure:
(§1) To assess cytotoxic effects, various concentrations of compounds of the invention were added to cultures of MV522 (human lung carcinoma cell line), HL60 (myeloid leukemia cells), and 8392 (B-cell leukemia/lymphoma) cells for 48 hours, then cell growth/viability was determined by trypan blue exclusion. As an alternative to 48 hour continuous exposure studies, cells were plated in liquid culture in 96 well plates, exposed to various concentrations of compounds of the invention for 2 hours, pulsed with [^3H]-thymidine for one to two hours and harvested onto filter papers. The filter papers were added to vials containing scintillation fluid and residual radioactivity determined in a beta (scintillation) counter.
(§2) Values are reported as mean±1 standard deviation; units are nanomoles per liter; and NT signifies not tested.
In general terms: Dividing cells build labelled thymidine or BrdU into new DNA.

The test system of series [2] is MV522 lung carcinoma xenograft. The series can be described thus: Test B in vivo MV522 lung carcinoma xenograft. The conditions noted are these: for MTD reached in Test B: daily IP for 5 consecutive days, MV522 xenograft mice; for relative tumor weight Wt/Wi Day 17 / relative tumor weight Wt/Wi Day 24 / relative tumor weight Wt/Wi Day 31: i.p. QD×5 on days 10-14, day ten = 1.0, dose: 1 14 mg/kg, 2 35 mg/kg, 13 32 mg/kg, 14 28 mg/kg. An excerpt: Several representative compounds of the invention were chosen for in vivo studies. […] Drug therapy was started 10 days after inoculation on a daily basis via IP route for 5 consecutive days. The animals were monitored for 3 weeks after start of therapy.
BALB/c nu/nu 4-week old female mice weighing 18–22 g were obtained from Simonsen, Inc. (Gilroy, Calif.) and maintained in the athymic mouse colony of the University of California (San Diego, Calif.) under pathogen free conditions using HEPA filter hoods. Animals were provided with sterilized food and water ad libitum in groups of 5 in plastic cages vented with polyester fiber filter covers. Clean, sterilized gowns, glove, face masks, and shoe and hood covers were worn by all personnel handling the animals. All studies were conducted in accordance with guidelines of the NIH “Guide for Care and Use of Animals” and approved by the University Institutional Animal Care and Use Committee (Protocol 3-006-2)
The MV522 lung carcinoma line used for xenograft studies was derived as described by Kelner et al. (Anticancer Res., 15: 867–872; 873–878 (1995)) and maintained in antibiotic-free RPMI 1640 (Mediatech, Herndon, Va.) supplemented with 10% fetal bovine serum and 2 mM glutamine in 37° C. humidified carbon dioxide incubator.
Each animal was earmarked and followed individually throughout the experiments. Mice received s.c. injections of the parental cell line MV522 using 10 million cells/inoculation over the shoulder. Ten days after s.c. implantation of the MV522 cells, when s.c. tumors were approximately 3×3 mm in size, animals received the desired drug and dosage. The effect of the compound on life span was calculated from median survival.
Although MV522 cells kill mice by metastases, primary s.c. tumor growth over the shoulder was monitored starting on the first day of treatment and at weekly intervals thereafter. Tumor size was measured in two perpendicular diameters. Tumor weights were estimated according to the formula w=(width)^2×length/2). Relative weights (RW) were calculated to standardized variability in tumor size among test groups at initiation of treatment using the formula RW=Wt/wi, where Wi is the tumor weight for a given animal at beginning of drug treatment and Wt is tumor weight at a subsequent time. Animals were necropsied, and organs were examined for evidence of metastases.
Comparison of survival curves between groups of animals was by the method of Kaplan and Meier. For comparison of relative tumor weights between multiple groups of animals, ordinary ANOVA followed by Tukey-Kramer multiple Comparison post ANOVA analysis was performed (Kelner et al. (Anticancer Res., 15: 867–872; 873–878 (1995)). Probability values (p) less than 0.05 were considered statistically significant.
Data was collected using eight animals in the control studies and four animals in each compound study. Values represent relative tumor weight or Wt/Wi (day ten by definition is 1.0). Drug was administered i.p. on days 10, 11, 12, 13, and 14 (QD×5 days).

The nature of series [3]: Tolerated dose / toxicity on administration. To be noted: chronically administered at 35 mg/kg. An excerpt: As one skilled in the art would recognize, the amount can be varied depending on the method of administration.
For series [4], the system named is MV522 (human lung carcinoma cell line). The experiment in a line: Test A in vitro cytotoxicity, 2 hour exposure, [3H]-thymidine incorporation. The class given is cell-based. To be noted: read-out: 2 hour IC50 MV522, mean ± 1 standard deviation. The procedure: as §1, §2
The test system of series [5] is HL60 (myeloid leukemia cells). The series is described as above. The conditions noted are these: read-out: 2 hour IC50 HL60, mean ± 1 standard deviation. The class given is cell-based. The procedure: as §1, §2
Another series concerns Dunning leukemia. To be noted: rats with Dunning leukemia; cited from earlier work.
A further series concerns solid tumor systems. To be noted: cited from earlier work.

Take `CC1=C2C=C(CO)C=C2C(=O)C(C)(O)C12CC2` (centres unmarked) [Compound 1]: the IC50 in series [1] was determined as 37 µM. Besides, in series [2], the “MTD reached in Test B” value was “not”, the “relative tumor weight Wt/Wi Day 17” value amounted to 1.4 ± 0.7, the “relative tumor weight Wt/Wi Day 24” value worked out at 7.0 ± 1.3 and the “relative tumor weight Wt/Wi Day 31” value was 11.8 ± 3.0.

For the compound `CC1=C2C(=CC(CO)=C2CO)C(=O)C(C)(O)C12CC2` (centres unmarked) [Compound 2], the “toxicity on chronic administration” value in series [3] is recorded as “without toxicity”. In series [4], the IC50 worked out at 11.3 µM. Also, in series [2], the “MTD reached in Test B” value is “not”, the “relative tumor weight Wt/Wi Day 17” value was found to be 2.1 ± 0.2, the “relative tumor weight Wt/Wi Day 24” value came to 3.3 ± 0.3 and the “relative tumor weight Wt/Wi Day 31” value is 4.0 ± 0.9.

`CC(=O)OCC1=CC2=C(C)C3(CC3)C(C)(O)C(=O)C2=C1` (centres unmarked) [Compound 3]: the IC50 in series [4] turned out to be 19.6 µM; in series [5], 15.6 µM; in series [1], 62 µM.

Turning to `CC(=O)OCC1=C(CO)C=C2C(=O)C(C)(O)C3(CC3)C(C)=C21` (centres unmarked) [Compound 4], the IC50 in series [4] is 20.4 µM; in series [5] it was greater than 40 µM.

Take `CC(=O)OCC1=C(COC(C)=O)C2=C(C)C3(CC3)C(C)(O)C(=O)C2=C1` (centres unmarked) [Compound 5]: the IC50 in series [5] turned out to be 38.4 µM.

With `COCC1=CC2=C(C)C3(CC3)C(C)(O)C(=O)C2=C1` (centres unmarked) [Compound 7], the IC50 in series [5] was 6 µM.

With `COCC1=C(CO)C=C2C(=O)C(C)(O)C3(CC3)C(C)=C21` (centres unmarked) [Compound 8], the IC50 in series [4] and in series [5] was greater than 80 µM each time.

Regarding `COCC1=C(COC)C2=C(C)C3(CC3)C(C)(O)C(=O)C2=C1` (centres unmarked) [Compound 9], the values for the IC50 in series [4] and in series [5] were greater than 50 µM and 49.8 µM, respectively.

In the case of `CC(=O)N[C@@H](CSCC1=C(C)C=C2C(=O)C(C)(O)C3(CC3)C(C)=C21)C(=O)O` (some centres unmarked) [Compound 13], the IC50 in series [4] stood at 10 µM. In series [2], the “relative tumor weight Wt/Wi Day 17” value turned out to be 2.3 ± 0.5, the “relative tumor weight Wt/Wi Day 24” value stood at 4.1 ± 0.8 and the “relative tumor weight Wt/Wi Day 31” value amounted to 4.7 ± 1.5.

On to `CC(=O)N[C@@H](CSCC1=C(C)C=C2C(=O)C(C)(O)C3(CC3)C(C)=C21)C(=O)N[C@H](C)c1ccccc1` (some centres unmarked) [Compound 14], for which, in series [4], the IC50 was 3.05 µM. Moreover, in series [2], the “relative tumor weight Wt/Wi Day 17” value was 3.2 ± 0.6, the “relative tumor weight Wt/Wi Day 24” value turned out to be 4.1 ± 0.8 and the “relative tumor weight Wt/Wi Day 31” value came to 6.0 ± 1.8.

For `CC1=C2C(=CC(C)(C)[C@@H]2O)C(=O)[C@](C)(O)C12CC2` [Illudin M], in the series on Dunning leukemia, the life span entry is given as “significantly increased”. Besides, the therapeutic index entry in the series on solid tumor systems is “low”.
